Test results taken from patent US20250304578A1, “NITROGEN-CONTAINING FUSED HETEROCYCLIC COMPOUNDS OF N-SULFONAMIDE AND USE THEREOF” (NUTSHELL THERAPEUTICS (SHANGHAI) CO., LTD., priority 2023, published 2025).
Where two headings read alike, the source gives them in different places.

Columns and labels:
[1] = Metabolic stability in liver microsomes; type: in vitro ADME; conditions: for microsomal CLint at 1 μM: read-out: In vitro Clint (μL/min/mg protein); for half-life at 1 μM: read-out: In vitro t1/2
Description: The test compound and the positive control compound (dextromethorphan as a control compound) were dissolved respectively in DMSO to prepare a stock solution with a concentration of 10 mM, and the above stock solution was diluted into 200 μM working solution with DMSO. 8.709 g of potassium hydrogen phosphate (K2HPO4) was dissolved in 950 mL of water, and the pH value of the solution was adjusted to 7.4 with hydrochloric acid, and then the volume was adjusted to 1000 mL with water. After filtration using a 0.22 μm filter membrane, the mixture was stored in a 4° C. refrigerator for later use. After liver microsomes of various species (protein concentration of 20 mg/mL) were thawed in a 37° C. water bath, the liver microsomes were diluted with a phosphate buffer respectively to obtain a liver microsome working solution with protein concentration of 0.629 mg/mL. 5 mM NADPH solution was prepared using the above phosphate buffer for later use. 1 mg/mL stock solution of terfenadine/tolbutamide was prepared with DMSO and then diluted with a 50% methanol/50% acetonitrile mixed solution to a reaction stop solution containing 5/10 ng/mL (terfenadine/tolbutamide) internal standard.
238.5 μL of liver microsome working solutions of various species were added to a 1.1 mL microtube, and 1.5 μL of the test compound working solution or the positive control compound (dextromethorphan) working solution (200 μM) was added respectively, mixed well, and pre-incubated in a 37° C. water bath for 5 minutes. 60 μL of NADPH solution was added to start the reaction, and after mixing well, at the time points of 0, 5, 15, 30, and 60 minutes after the reaction, 30 μL of the reaction mixture was respectively pipetted and added to 300 μL of the reaction stop solution. Samples from all time points were vortexed vigorously for 1 minute and centrifuged at 4000 rpm for 15 minutes at 4° C. 100 μL of the supernatant was added to 100 μL of pure water and mixed well for LC-MS/MS analysis.
The slope (ke) was determined by plotting the natural logarithm of the percentage of compound remaining against time, and the Tin and intrinsic clearance (CLint) were calculated based on the first-order kinetic formula: […]
The compound remaining rate is calculated as follows:
Intrinsic clearance CLint (μL/min/mg protein)=0.693*1000/T1/2/protein concentration (0.5 mg protein/mL)

[2] = In vivo pharmacokinetic study in rats; conditions: male, rat, plasma, SD rats
Description: (§1) Intravenous injection: 40% HP-β-CD in water; intragastric administration: 0.2% HPC+0.5% Tween80 in water.
6 male rats. Fasting treatment was performed in the evening before the administration, with free access to water. During the experiment, the rats were allowed to eat and drink freely, and administered by intravenous injection or gavage. After administration, the animal status was observed, and abnormal behaviors were recorded. Blood was collected via jugular vein puncture at 0.0833, 0.25, 1, 2, 4, 8, and 24 hours after intravenous injection; Blood was collected via jugular vein puncture at 0.25, 0.5, 1, 2, 4, 6, 8, and 24 hours after intragastric administration. 50 μL of plasma sample was taken and added with 500 μL of acetonitrile (containing dexamethasone as an internal standard) to precipitate proteins. The mixture was centrifuged at 4° C. and 4000 rpm for 20 minutes, and 300 μL of the supernatant was taken and mixed with 300 μL of Watsons aqueous solution in a 96-well plate. Then, 5 μL of the sample was taken for LC-MS/MS detection.
(§2) The standard curve was established using the internal standard method, with the theoretical standard curve concentration as the X-axis and the peak area ratio as the Y-axis (peak area of the test compound/peak area of internal standard). Linear regression method (weighting factor 1/X2) was used, R^2>0.9900. Unknown samples were calculated by the standard curve. Pharmacokinetic parameters were calculated by the non-compartmental analysis model of WinNonlin 8.2 software and were presented in a report, including Clint, Cmax, AUC, etc.

[3] = In vivo pharmacokinetic study in mice; conditions: male, mouse, plasma, CD-1 mice
Description: as §1
6 male mice. Fasting treatment was performed in the evening before the administration, with free access to water. During the experiment, the mice were allowed to eat and drink freely, and administered by intravenous injection or gavage. After administration, the animal status was observed, and abnormal behaviors were recorded. Blood was collected from the orbit at 0.0833, 0.25, 1, 2, 4, 8, and 24 hours after intravenous injection, and at 0.25, 0.5, 1, 2, 4, 6, 8, and 24 hours after intragastric administration. 20 μL of plasma sample was taken and added with 250 μL of acetonitrile (containing dexamethasone as an internal standard) to precipitate proteins. The mixture was centrifuged at 4° C. and 4000 rpm for 20 minutes, and 180 μL of the supernatant was taken and mixed with 180 μL of an aqueous solution containing 0.1% formic acid in a 96-well plate. Then, 10 μL of the sample was taken for LC-MS/MS detection.
as §2

CYP2C19 = CYP2C19 (Homo sapiens (Human), UniProt P33261); assay: Inhibitory activity on CYP isoenzymes at a single concentration; type: in vitro ADME; conditions: pH 7.4, probe mephenytoin; final compound concentration 10 μM; human liver microsomes; substrate mephenytoin; NI: no inhibition; read-out: Inhibition rate (%) CYP2C19
Source text: The buffer was filtered through a 0.45 μm filter.

[4] = ICR/CD-1, pH 7.4, Mouse liver microsomes
[5] = Sprague Dawley, pH 7.4, Rat liver microsomes

Sequence of CYP2C19 (P33261 whole entry): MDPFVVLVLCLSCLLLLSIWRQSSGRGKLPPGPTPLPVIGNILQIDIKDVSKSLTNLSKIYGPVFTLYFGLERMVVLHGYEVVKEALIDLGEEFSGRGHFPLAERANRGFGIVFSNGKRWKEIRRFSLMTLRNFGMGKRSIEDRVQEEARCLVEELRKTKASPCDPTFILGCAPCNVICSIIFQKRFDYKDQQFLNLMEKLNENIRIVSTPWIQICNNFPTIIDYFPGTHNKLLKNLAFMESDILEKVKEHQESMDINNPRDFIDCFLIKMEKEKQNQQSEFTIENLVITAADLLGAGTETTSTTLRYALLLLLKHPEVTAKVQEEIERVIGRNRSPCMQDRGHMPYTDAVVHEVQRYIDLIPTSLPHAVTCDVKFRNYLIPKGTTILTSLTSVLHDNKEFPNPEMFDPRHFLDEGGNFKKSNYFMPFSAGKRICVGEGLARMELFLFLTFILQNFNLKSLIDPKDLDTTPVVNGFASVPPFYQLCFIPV

| microsomal CLint at 1 μM [1, 4] [µL/min/mg] | half-life at 1 μM [1, 4] [h] | microsomal CLint at 1 μM [1, 5] [µL/min/mg] | half-life at 1 μM [1, 5] [h] | microsomal CLint at 1 μM ([1]; pH 7.4, Human liver microsomes) [µL/min/mg] | half-life at 1 μM ([1]; pH 7.4, Human liver microsomes) [h] | AUC(0-t) ([2]; IV 1 mg/kg) [µM·h] | AUC(0-t) ([2]; PO 10 mg/kg) [µM·h] | Cmax ([2]; PO 10 mg/kg) [µM] | AUC(0-t) ([3]; IV 1 mg/kg) [µM·h] | AUC(0-t) ([3]; PO 10 mg/kg) [µM·h] | Cmax ([3]; PO 10 mg/kg) [µM] | inhibition at 10 min, 10 µM (CYP2C19) [%] | Structure (SMILES) |
| --- | --- | --- | --- | --- | --- | --- | --- | --- | --- | --- | --- | --- | --- |
| 12.6 | 1.83 | 11.7 | 1.98 | < 5.4 | > 4.27 | 8.4 | 58.4 | 8.9 | 1.7 | 15.7 | 5.9 | 8.4 | [2H]C([2H])([2H])Oc1nc(C(=O)NS(C)(=O)=O)ccc1NCC#Cc1cc2c(N[C@@H]3CCN(C)C[C@@H]3F)cccn2c1CC(F)(F)F [Cpd-2, 5-((3-(8-(((3S,4R)-3-Fluoro-1-methylpiperidin-4-yl)amino)-3-(2,2,2-trifluoroethyl)indolizin-2-yl)prop-2-yn-1-yl)amino)-6-(methoxy-d3)-N-(methylsulfonyl)picolinamide] |
| 13.7 | 1.2 | 35 | 0.467 | 7.3 | 2.27 | – | – | – | – | – | – | – | COc1nc(C(=O)NS(C)(=O)=O)ccc1NCC#Cc1cc2c(N[C@@H]3CCN(C)C[C@@H]3F)cccn2c1CC(F)(F)F [Cpd-1, 5-((3-(8-(((3S,4R)-3-Fluoro-1-methylpiperidin-4-yl)amino)-3-(2,2,2-trifluoroethyl)indolizin-2-yl)prop-2-yn-1-yl)amino)-6-methoxy-N-(methylsulfonyl)picolinamide] |
